Experimental data published in patent publication US20240082208A1 (priority 2021, published 2024).

Legend:
[1] = tested on: severe acute respiratory syndrome virus (SARS; SARS-CoV-2); parameters: species or system K18-ACE2 TG mice; conditions: mouse, in vivo
dengue virus = assay: In vitro dengue virus infection of Vero cells, viral RNA titer by qRT-PCR; format: cell-based; conditions: 40 μM, 48 hours after infection
Description: In order to evaluate the antiviral effect of irosustat in vitro, an additional experiment was performed in which Vero cells were infected with dengue virus. 16 hours before viral infection, cells were pre-treated with irosustat at a concentration of 0 μM, 20 μM or 40 μM, and 1 hour thereafter, the medium was replaced with a cell culture medium containing the drug. 48 hours after infection with the virus, the viral RNA titer of dengue virus in the cell culture medium was measured through qRT-PCR, and the results are shown in FIG. 3.

NS(=O)(=O)Oc1ccc2c3c(c(=O)oc2c1)CCCCC3 [irosustat, (6-oxo-8,9,10,11-tetrahydro-7H-cyclohepta[c]chromen-3-yl)sulfamate]
viral titer in the lung tissue, lower than vehicle [1]: about 77% | decrease of virus titer (dengue virus): ≥ 50%
